Legend:
[1] = tested on: amyloid-β plaque; details: preliminary clinical data; ref Kung et al., 2012; cited from earlier work
[2] = tested on: amyloid-β; details: ref Joshi et al., 2012, cited from earlier work
[3] = target: amyloid-β; details: ref Choi et al., 2009; cited from earlier work
[4] = tested on: amyloid-β plaques; assay: 18F-florbetapir PET scan in Alzheimer's disease patients; assay type: in vivo, human
[5] = Alzheimer's disease (n = 3), PET 50–65 min post-injection

## CN(C)c1ccc(-c2cn3cc([123I])ccc3n2)cc1 [123I-IMPY, ^123 I-2-(4′-dimethylaminophenyl)-6-iodo-imidazo[1,2-a]pyridine]
[1]
  Target-to-background ratio for amyloid-β plaque labelling: not as robust as that of PET tracers

## CNc1ccc(/C=C/c2ccc(OCCOCCOCCF)nc2)cc1 [18F-florbetapir]
[2]; Alzheimer's disease patients
  Mean cortical-to-cerebellar SUVR: 1.42 ± 0.24
[2]
  Greater SUVR in Alzheimer's disease patients relative to healthy controls: 42%
[3]
  Kd: 3.7 nM
[4]; [5]
  SUVR Anterior cingulate: 1.28 ± 0.05
  SUVR Cortical average: 1.31 ± 0.10
  SUVR Frontal cortex: 1.29 ± 0.13
  SUVR Occipital cortex: 1.12 ± 0.25
  SUVR Parietal cortex: 1.37 ± 0.21
  SUVR Posterior cingulate: 1.48 ± 0.11
  SUVR Subcortical white matter: 1.62 ± 0.16
  SUVR Temporal cortex: 1.32 ± 0.15
[4]; subject AD01
  18F-florbetapir scan, visual interpretation: Positive
[4]; subject AD02
  18F-florbetapir scan, visual interpretation: Positive
[4]; subject AD03
  18F-florbetapir scan, visual interpretation: Positive
